Laboratory results: patent US20110028458A1, “INHIBITION OF CELL MIGRATION BY A FARNESYLATED DIBENZODIAZEPINONE” (THALLION PHARMACEUTICALS INC., priority 2008, published 2011)

Tests used:
[1] = test system: central benzodiazepine receptor (CBR; GABAA); test: CBR (GABAA) radioligand binding assay, [3H]flunitrazepam, rat brain; settings: 10 μM
Description: (§1) The procedures used were based on known assays: ACAT (from rat; Ref: Largis et al (1989), J. Lipid. Res., vol 30, 681-689), COX-2 (human; Ref: Riendeau et al (1997), Can. J. Physiol. Pharmacol., vol 75, 1088-1095 and Warner et al (1999), Pro. Natl. Acad Sci. USA, vol 96, 7563-7568), 5-LO (human; Ref: Carter et al (1991), J. Pharmacol. Exp. Ther., vol 256, no 3, 929-937, and Safayhi et al (2000), Planta Medica, vol 66, 110-113), PBR (from rat; Le Fur et al (1983), Life Sci. USA, vol 33, 449-457), CysLT1 (human; Martin et al (2001), Biochem. Pharmacol., vol 62, no 9, 1193-1200) and CBR (from rat; Damm et al (1978), Res. Comm. Chem. Pathol. Pharmacol., vol 22, 597-600 and Speth et al (1979), Life Sci., vol 24, 351-357).
(§2) Binding Assays were done at constant concentration of the compound, in 1% DMSO as vehicle, and are specified below each enzyme/receptor type in Table 3. Significance was obtained when a result was ≧50% binding or inhibition (underlined).
As Compound 1 was isolated from structural prediction through genetic analysis and activity identified through in vitro cytotoxic assays, its molecular target(s) were unknown at the time of discovery. Based on the structural characteristics of TLN-4601, we first investigated its binding affinity to the central (GABAA; CBR;) and peripheral (PBR) benzodiazepine receptors. The effect of TLN-4601 on CBR (GABAA) and PBR was initially evaluated in a radioligand-binding assay at MDS Pharma Services (Taipei, Tawain). CBR and PBR were obtained from rat brain and heart membrane-fractions, respectively. Displacement assays were done in the presence of 1 nM [^3H]-Flunitrazepam (CBR; GABAA) or 0.3 nM of [^3H]-PK11195 (PBR). TLN-4601 was tested at 0.01, 0.1, 0.5, 1, 5 and 10 μM. Non-specific binding was estimated in the presence of 10 μM diazepam (CBR) or 100 μM dipyrimadole (PBR) and assays were performed according to previous described methods (Damm et al Res Commun Chem Pathol Pharmacol 22, pp 597-600; Le Fur et al (1983) Life Science 33, pp 449-57). […] This contrats with current specific PBR ligands, which bind the PBR with nanomolar affinity yet their effect on cell proliferation, is in the micromolar range.

[2] = test system: HT-29 (colorectal carcinoma); test: In vitro cytotoxic activity, propidium iodide, HT-29; type: cell-based, human
[3] = test system: SRBC; test: Hemolysis of SRBC; type: cell-based
[4] = test system: MDA-MB-231 (mammary gland adenocarcinoma); test: In vitro cytotoxic activity, propidium iodide, MDA-MB-231; type: cell-based, human; settings: 96 hrs
[5] = test system: SF268 (CNS); test: In vitro cytotoxic activity, propidium iodide, SF-268; type: cell-based, human; settings: 96 hrs
[6] = test system: PC-3 (prostate adenocarcinoma); test: In vitro cytotoxic activity, propidium iodide, PC-3; type: cell-based, human; settings: 96 hrs
[7] = test system: ACAT; test: ACAT enzyme assay, [14C]cholesterol ester quantitation; type: biochemical, rat; settings: 10 μM
Description: as §1
Binding assays were done for each of Compounds 1-12 and 46 using ACAT, COX-2, 5-LO, PBR and CysLT1 enzymes. The procedures used are based on the respective references mentioned above and the conditions are summarized in Tables 1 (enzyme assays) and 2 (radioligand receptor assays).
as §2

| Structure (SMILES) | Percentage of inhibition or binding activity, CBR [1] [%] | Hemolysis ED50 (concentration necessary to achieve 50% hemolysis of SRBC) [3] [µg/mL] | other results |
| --- | --- | --- | --- |
| COc1cc(OC)c2c(c1)N(C/C=C(\C)CC/C=C(\C)CCC=C(C)C)C(=O)c1cccc(O)c1N2 [Compound 6] | 14 | >64 | GI50 ([2]; Homo sapiens, HT-29, 96 h): > 30000 nM |
| CCN1c2c(O)cccc2C(=O)N(C/C=C(\C)CC/C=C(\C)CCCC(C)(C)OC)c2cc(O)cc(O)c21 [Compound 85] | – | >64 | – |
| CC(C)=CCC/C(C)=C/CC/C(C)=C/CN1C(=O)c2cccc(O)c2N(C)c2c(O)cc(O)cc21 [Compound 98] | – | – | GI50 [4]: 510 nM; GI50 [5]: 160 nM; GI50 [6]: 820 nM; GI50 ([2]; 96 hrs): 690 nM |
| CCN1c2c(O)cccc2C(=O)N(CC=C(C)CCCC(C)(CCCC(C)(C)OC)OC)c2cc(O)cc(O)c21 (centres unmarked) [Compound 87] | – | >64 | GI50 [4]: 2400 nM; GI50 [5]: 910 nM; GI50 [6]: 1390 nM; GI50 ([2]; 96 hrs): 1830 nM |
| CC(C)CCCC(C)CCCC(C)CCN1C(=O)c2cccc(O)c2N(C)c2c(O)cc(O)cc21 (centres unmarked) [Compound 78] | – | 9.89 | – |
| CCCCN1c2c(O)cccc2C(=O)N(C/C=C(\C)CC/C=C(\C)CCC=C(C)C)c2cc(O)cc(O)c21 [Compound 64] | – | >64 | – |
| CC(=O)Oc1cc(O)c2c(c1)N(CC=C(C)CCC=C(C)CCC=C(C)C)C(=O)c1cccc(OC(C)=O)c1N2 [Compound 11] | 20 | 9.8 | GI50 [4]: 7720 nM; GI50 [5]: 5790 nM; Percentage of inhibition or binding activity, ACAT [7]: 71%; GI50 [6]: 5350 nM; GI50 ([2]; 96 hrs): 16000 nM |
| [2H]C([2H])([2H])N1c2c(O)cccc2C(=O)N(C/C=C(\C)CC/C=C(\C)CCC=C(C)C)c2cc(O)cc(O)c21 [Compound 98] | – | 4.5 | – |
| COc1cc(OC)c2c(c1)N(CC=C(C)CCC=C(C)CCC=C(C)C)C(=O)c1cccc(OC)c1N2 [Compound 8] | 1 | – | Percentage of inhibition or binding activity, ACAT [7]: 40% |
| CCC(C)N1c2c(O)cccc2C(=O)N(C/C=C(\C)CC/C=C(\C)CCC=C(C)C)c2cc(O)cc(O)c21 (centres unmarked) [Compound 77] | – | 60.9 | – |
| COc1cc(O)cc2c1Nc1c(O)cccc1C(=O)N2C/C=C(\C)CC/C=C(\C)CCC=C(C)C [Compound 5] | 21 | >64 | Percentage of inhibition or binding activity, ACAT [7]: 60% |
| COC(C)(CCC=C(C)C)CCC/C(C)=C/CN1C(=O)c2cccc(O)c2N(C)c2c(O)cc(O)cc21 (centres unmarked) [Compound 80] | – | >64 | – |
| CC(C)=CCC/C(C)=C/CC/C(C)=C/CN1C(=O)c2cccc(O)c2N(Cc2ccccc2)c2c(O)cc(O)cc21 [Compound 3] | 10 | >64 | Percentage of inhibition or binding activity, ACAT [7]: 63% |
| COC(C)(CCC=C(C)C)CCC/C(C)=C/CN1C(=O)c2cccc(O)c2Nc2c(O)cc(O)cc21 (centres unmarked) [Compound 83] | – | 12.4 | – |
| COC(C)(C)CCC/C(C)=C/CC/C(C)=C/CN1C(=O)c2cccc(O)c2Nc2c(O)cc(O)cc21 [Compound 82] | – | >64 | – |
